The record followed here is PubChem BioAssay (NCI).

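48-hour exposure; five concentrations; linearly interpolated endpoints. At the TGI there is no net growth.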 Where a SMILES comes first, the peptide text is derived from it. [ ]: non-standard residue; d: D form. The star is where a group is joined. Phe(4-NO2) = N[CH](Cc1ccc([N+](=O)[O-])cc1)C(=O)O; Boc = CC(C)(C)OC(=O)*

Test in all cases: DTP human tumour cell line panel, 48 h
Test [1] deals with MALME-3M melanoma.
Test [2] concerns HCT-15 colon.
Test [3] relates to UO-31 renal.
In test [4] the test system is CAKI-1 renal.
Test [5] relates to SN12C renal.
For test [6], the system named is CCRF-CEM leukemia.
Test [7] deals with HOP-92 NSCLC.
Test [8] deals with SNB-19 CNS.
In test [9] the test system is SK-MEL-2 melanoma.
Test [10] deals with HL-60(TB) leukemia.

Consider `c1ccc2c(Nc3ncco3)cccc2c1`, for which the concentration for total growth inhibition (TGI) in test [1], in test [2], in test [3], in test [4], in [5] and in [6] was over 10 µM throughout. Moreover, the TGI in test [7] and in test [8] was over 10 µM in each case.

With `CC(CCc1nc2ccccc2s1)(c1ccc(O)cc1)c1ccc(O)cc1`, the TGI amounted to 31 µM in test [1]; 35.4 µM in test [2]; 31.3 µM in test [3]; 45 µM in [4]; 33.6 µM in test [5]; 31.4 µM in test [9]. Besides, the TGI in test [7] is 36.7 µM; in test [8] it was 34.8 µM.

`Cc1nc2ccc(Cl)cc2c2c1CCO2`: the total growth inhibition concentration (TGI) in test [10] is over 100 µM; in test [1] it was over 100 µM; in test [2], over 100 µM; in [3], over 100 µM; in [4] it was 79.6 µM; in [5] it was over 100 µM. The TGI in test [6], in test [7] and in test [8] was over 100 µM each time.

For `Cc1ccc(-n2nncc2[Si](C)(C)C)s1`, the TGI in test [1] is over 100 µM; in test [2] it was over 100 µM; in test [3] it was over 100 µM; in test [4], over 100 µM; in [5], over 100 µM; in [6], 56.7 µM. Also, the TGI in test [9], in [7] and in [8] was over 100 µM in each case.

On to `O=C1C=CC(=O)c2c(O)c(N3CCOCC3)c(Cl)c(O)c21`, for which the TGI was 0.442 µM in test [1]; 0.403 µM in test [2]; 0.892 µM in test [3]; 1.27 µM in [4]; 0.425 µM in test [5]; over 10 µM in test [6]. The values for the TGI in test [9], in test [7] and in test [8] were 0.765 µM, 0.675 µM and 3.17 µM, respectively.

Consider `O=C1CC(c2ccsc2)n2cccc21` (configuration not stated), for which the total growth inhibition concentration (TGI) in test [10], in test [2], in [3], in test [4], in [5] and in test [6] was over 100 µM each time. Also, the TGI in test [9], in test [7] and in test [8] was over 100 µM in each case.

On to `COc1ccc(OC)c2c(C)ccnc12`, for which the concentration for total growth inhibition (TGI) was over 74.3 µM in test [1]; over 100 µM in test [2]; 74.3 µM in test [3]; over 100 µM in test [4]; over 100 µM in test [5]; over 29.8 µM in test [6]. Also, the total growth inhibition concentration (TGI) was over 100 µM in test [9], 90.8 µM in [7] and over 100 µM in test [8].

As to `Cc1c(OCc2cccc3ccccc23)ccc2c(=O)cc(SCCN3CCOCC3)oc12`, the TGI in [10], in test [2], in test [3], in [4], in [5] and in test [6] was over 100 µM throughout. For the same molecule, the TGI in [9], in test [7] and in test [8] was over 100 µM each time.

On to `COc1cc2c3c(n(C)c(=O)c2cc1OC)-c1cc2c(cc1/C3=C\CCCCCBr)OCO2`, for which the total growth inhibition concentration (TGI) in [10] was 20.3 µM; in [2] it was over 100 µM; in [3], 47.8 µM; in test [4], over 100 µM; in test [5], over 100 µM; in test [6], 38.3 µM. Moreover, the total growth inhibition concentration (TGI) in [9] was over 100 µM; in test [7], 38.7 µM; in [8], over 100 µM.

Take `O=C(O)CSC1=NNC2(C(=O)N1)c1ccccc1-c1ccccc12`: the TGI in test [10], in test [1], in [2], in test [3], in [4] and in test [5] was over 10 µM each time. Further, the TGI in [6], in test [7] and in [8] was over 10 µM each time.

As to `CCOC(=O)CCC(NC(=O)C(Cc1ccc([N+](=O)[O-])cc1)NC(=O)OC(C)(C)C)C(=O)NC(CCC(=O)OCC)C(=O)OCC` (configuration not stated) (Boc-[Phe(4-NO2)]-Glu(OEt)-Glu(OEt)-OEt; configuration not given here), the TGI in test [10] was 44 µM; in test [1], 35 µM; in [2] it was over 100 µM; in test [3], over 100 µM; in [5], 49.7 µM; in test [9] it was 25.9 µM. Moreover, the concentration for total growth inhibition (TGI) is 34.7 µM in test [7] and over 100 µM in test [8].

In the case of `O=C1c2ccncc2C(=O)c2c(O)ccc(O)c21`, the TGI was 5.41 µM in test [10]; 5.44 µM in test [1]; 24.3 µM in [2]; 29.7 µM in test [3]; 16.1 µM in test [5]; 32.7 µM in test [6]. The concentration for total growth inhibition (TGI) in test [7] turned out to be 32.4 µM; in test [8], 24.8 µM.

As to `Cc1cn(C2CC(COCc3ccccc3)N(CCO[Si](C)(C)C(C)(C)C)O2)c(=O)[nH]c1=O` (configuration not stated), the total growth inhibition concentration (TGI) came to 34.3 µM in test [1]; 28.2 µM in test [3]; 32.7 µM in test [4]; 25.1 µM in test [5]; 30 µM in test [9]; 25.7 µM in test [7]. In addition, the TGI in [8] worked out at 27.2 µM.

Regarding `S=C1C(=Nc2ccccc2)N(c2ccccc2)/C(=N\c2cccc[n+]2Cc2ccccc2)N1c1ccccc1`, the TGI in [1] was found to be 28.2 µM; in [2] it was 45.7 µM; in [3], 42.8 µM; in [4] it was 55.7 µM; in test [5], 35.4 µM; in test [9], 55.8 µM. Further, the TGI was 41.9 µM in test [7] and 34.8 µM in test [8].

With `COc1cccc2c1OC1c3ccccc3OCC1(O)C2` (configuration not stated), the TGI in [1], in [2], in [3], in test [4], in test [5] and in test [6] was over 100 µM in each case. Further, the concentration for total growth inhibition (TGI) in test [9] and in test [7] was over 100 µM throughout.

Usually TGI stands for the concentration giving total growth inhibition. Read a high TGI as less potent growth arrest.
